# Experimental data reported in patent US4426378A, “Thyrotropin releasing hormone in therapy of shock and as a central nervous system stimulant” (The United States of America as represented by the …, priority 1981, dated 1984).
# What was measured:
# [1] = test system: rats subjected to endotoxic shock; experiment: Endotoxic shock follow-up: dose-response, cardiorespiratory variables and survival, Experiment No. 2; format: in vivo, rat; conditions: for pulse pressure / change in mean arterial pressure / respiratory rate / heart rate: 15 min following treatment; for survival, alive/dead: 2 hrs following treatment (saline 4/4)
# Procedure: (§1) Follow-up studies were performed to evaluate other physiological parameters, TRH dose-response characteristics, and the effect of TRH on endotoxic shock survival in the rat. The experiments were conducted identically as described above in Experiment No. 1 for initial endotoxic shock studies, except heart rate, pulse pressure, respiration rate, and behavioral measures were examined following treatment with intravenous saline or TRH (0.2, 0.63, 2.0, 6.34, or 20.0 mg per kilogram body weight). Survival at 2 hours post drug treatment was also assessed. […] Pressure fell from 98.0±1.3(SE) millimeters of mercury (mm Hg) to 70.7±1.6 (SE) mm Hg, student's t=13.3, p 0.001.
# When saline-control rat mortality was compared to mortality in all TRH-treated animals over the 2 hour measurement interval, there was a significant decrease in the lethal effects of endotoxemia produced by a single injection of this substance (Fisher exact probability, p=0.01).
# [2] = test system: rats subjected to hemorrhagic shock; experiment: Hemorrhagic shock, Experiment No. 3; format: in vivo; conditions: TRH 2 mg/kg i.v.
# Procedure: Another group of rats was subjected to hemorrhagic shock according to our previous experimental design. In a total of 27 rats, blood was withdrawn from the indwelling external jugular vein cannula; MAP fell from 96.5±1.6 mm Hg to 37.2±1.0 mm Hg where it was maintained for 20 minutes. A total of […] (body weight) of blood was removed, a volume approximating 45% of estimated total blood volume. Following the 20 minutes of controlled oligemia, animals were treated with either i.v. TRH (2 mg/kg, m=15) or an equal volume of i.v. saline (1.0 ml/kg, n=12) followed by a 0.2 ml cannula flush. Shed blood was not returned. […] The duration of this effect was about 30 minutes, approximately equivalent to the duration of the pressor response to TRH in normotensive rats not subjected to shock, FIG. 3a. In this model, saline-treated rats also experienced an increase in MAP, a consequence of the fluid volume infused.
# [3] = test system: control rats not subjected to shock; experiment: Cardiovascular effects of i.v. TRH in control rats not subjected to shock; format: in vivo, male Sprague-Dawley rats; conditions: TRH 2 mg/kg i.v.
# From the text: (§2) Tail-artery and external-jugular vein cannulae were implanted in male Sprague-Dawley rats (250-300 g; Zivic-Miller Labs) according to standard surgical techniques. Twenty-four hours later, the arterial cannula were connected to a microtransducer (Narco Biosystems, RP 1500 attached to a Beckman physiograph, type R). This arrangement permitted continuous measurement of blood pressure and heart rate in awake, freely moving rats in their home cages.
# In control rats which were not subjected to shock, the cardiovascular effects of intravenous (i.v.) TRH alone were determined. A dose of 2 mg/kg body weight TRH (Beckman Labs) was injected, followed by a cannula flush (0.2 ml saline) to ensure complete drug delivery. Cardiovascular parameters were monitored for two hours. TRH administration caused a significant increase in mean arterial pressure (MAP) of 11.1±1.5 mm Hg (n-10, Student's t=7.25, p 0.001), with peak effects observed at 5-minute post-injection and persisting for 30 minutes (FIG. 1).
# rats [4] = experiment: Tail-flick procedure (thermal stimulus to the tail); format: in vivo; conditions: n=6
# Procedure: (§3) To confirm the lack of effect of TRH upon analgesic responses, an additional group of rats was equipped with intravenous cannulae only. One day later, rats were divided into 3 groups (n=6/group). Group one received TRH alone (2.0 mg/kg--a dose with therapeutic effects in shock), group two received morphine sulfate (4 mg per kg) followed by TRH (2.0 mg per kg), and group three got morphine sulfate alone (4.0 mg per kg). Pain latencies were determined by applying a thermal stimulus to the tail, tail-flick procedure, FIG. 4a, and by measuring how long required for a rat to escape from an enclosure with a heated floor (53° C.), FIG. 4b.
# [5] = test system: rats subjected to endotoxic shock; experiment: Endotoxic shock (E. coli lipopolysaccharide endotoxin i.v.), Experiment No. 1; format: in vivo, male Sprague-Dawley rats; conditions: TRH 2 mg/kg i.v.
# From the text: as §2
# A second group of rats was subjected to endotoxic vasogenic, septic) shock by the i.v. administration of Escherichia coli lipopolysaccharide endotoxin (15 mg/kg; Difco, control #654109). In these animals, MAP fell to 67-70 mm Hg, which was approximately 26% (24 mm Hg) below baseline levels of 92.7±1.9 mm Hg (n=22). These rats, randomly divided into two groups, were treated with either i.v. TRH (2 mg/kg, n=13) or an equal volume of i.v. saline (1.0 ml/kg, n=11), followed by a 0.2 ml cannula flush.
# rats [6] = experiment: Escape from enclosure with heated floor (53° C.); format: in vivo
# Procedure: as §3
# rats [7] = experiment: Behavioral effects of intravenous TRH (CNS stimulant); format: in vivo
# Procedure: as §1
# In addition to its effects upon physiological parameters, intravenous TRH also produced a variety of behavioral effects indicative of its action as a CNS stimulant.
smiles,measurement,setting,value
"NC(=O)[C@@H]1CCCN1C(=O)[C@H](Cc1c[nH]cn1)NC(=O)[C@@H]1CCC(=O)N1 [TRH, L-pyroglutamyl-L-histidyl-L-proline amide]",TRH dose vs improvement in MAP,"[1]; 15 minutes following treatment, n=34, r=0.43, p<0.02",significant dose-response correlation
same,pulse pressure,"[1]; TRH 0.20 mg/Kg IV, n=8, spread ±2.9",24.4 mm Hg
same,change in mean arterial pressure,"[1]; TRH 0.20 mg/Kg IV, n=8, spread ±5.1",21.4 mm Hg
same,respiratory rate,"[1]; TRH 0.20 mg/Kg IV, n=8, spread ±6.8",107.0 breaths/min.
same,heart rate,"[1]; TRH 0.20 mg/Kg IV, n=8, spread ±16.8",465.0 beats/min
same,"survival, alive/dead",[1]; TRH 0.20 mg/Kg,7/1
same,respiratory rate,"[1]; TRH 0.63 mg/Kg IV, n=8, spread ±4.0",109.0 breaths/min.
same,change in mean arterial pressure,"[1]; TRH 0.63 mg/Kg IV, n=8, spread ±5.2",20.9 mm Hg
same,pulse pressure,"[1]; TRH 0.63 mg/Kg IV, n=8, spread ±5.7",36.2 mm Hg
same,heart rate,"[1]; TRH 0.63 mg/Kg IV, n=8, spread ±22.4",470.0 beats/min
same,"survival, alive/dead",[1]; TRH 0.63 mg/Kg,8/0
same,pulse pressure,"[1]; TRH 2.00 mg/Kg IV, n=8, spread ±3.9",33.1 mm Hg
same,change in mean arterial pressure,"[1]; TRH 2.00 mg/Kg IV, n=8, spread ±5.1",24.2 mm Hg
same,respiratory rate,"[1]; TRH 2.00 mg/Kg IV, n=8, spread ±6.9",125.0 breaths/min.
same,heart rate,"[1]; TRH 2.00 mg/Kg IV, n=8, spread ±24.0",517.5 beats/min
same,"survival, alive/dead",[1]; TRH 2.00 mg/Kg,7/1
same,change in mean arterial pressure,"[1]; TRH 6.34 mg/Kg IV, n=8, spread ±3.7",35.1 mm Hg
same,pulse pressure,"[1]; TRH 6.34 mg/Kg IV, n=8, spread ±4.1",37.5 mm Hg
same,respiratory rate,"[1]; TRH 6.34 mg/Kg IV, n=8, spread ±4.3",147.0 breaths/min.
same,heart rate,"[1]; TRH 6.34 mg/Kg IV, n=8, spread ±21.0",530.0 beats/min
same,"survival, alive/dead",[1]; TRH 6.34 mg/Kg,8/0
same,effect on pulse pressure and heart rate,"[1]; TRH i.v., endotoxic shock",increased pulse pressure and heart rate
same,effect on respiration rate,"[1]; TRH i.v., endotoxic shock",increased in a dose-related manner
same,survival following endotoxic shock,"[1]; all TRH-treated vs saline-control, 2 hour interval, single injection, Fisher exact probability p=0.01",significantly improved
same,duration of MAP effect,[2],about 30 minutes
same,MAP higher than saline-control rats,"[2]; n=15, first 15 minutes following injection",20-25 mm Hg
same,MAP area scores vs saline,"[2]; Student's t=2.11, p<0.05",significantly greater
same,persistence of MAP increase,[3]; control rats,30 min
same,time of peak effect on MAP post-injection,[3]; control rats,5 min
same,increase in mean arterial pressure (MAP),"[3]; normotensive control rats, n=10",11.1±1.5 mm Hg
same,"pain latency, tail-flick",rats [4]; TRH alone 2.0 mg/kg i.v.,no effect
same,"effect on morphine-induced analgesia, tail-flick",rats [4]; morphine sulfate 4 mg per kg followed by TRH 2.0 mg per kg,did not alter the intensity or duration of morphine-induced analgesia
same,increase in MAP,"[5]; n=13, average during first 30 minutes post-treatment, endotoxin 15 mg/kg",20-25 mm Hg
same,MAP area scores vs saline,"[5]; triangulation of response-time data, Student's t=5.66, p<0.001",significant differences between the two treatment groups
same,"pain latency, escape from heated floor","rats [6]; TRH alone 2.0 mg/kg i.v., n=6, 53° C.",no effect
same,"effect on morphine-induced analgesia, escape from heated floor","rats [6]; morphine sulfate 4 mg per kg followed by TRH 2.0 mg per kg, n=6",did not alter the intensity or duration of morphine-induced analgesia
same,lowest dose at which wet-dog shaking behavior was observed,rats [7]; intravenous TRH,0.63 mg per kg
same,"tail-rattling, oral ""chewing"" stereotypies, and piloerection",rats [7]; intravenous TRH 6.34 or 20.0 mg per kg body weight,frequently observed
